Source: ChEMBL document CHEMBL4507266, “Data for DCP probe BAY-784” (2021)

Experiments:
[1] = target: Interleukin-1 receptor-associated kinase 1 (Homo sapiens) (UniProt P51617); conditions: Compound concentration 1000.0 nM
[2] = target: D(1B) dopamine receptor (Homo sapiens) (UniProt P21918); conditions: Compound concentration 10.0 uM
[3] = target: Serine/threonine-protein kinase B-raf (Homo sapiens) (UniProt P15056); conditions: Compound concentration 1000.0 nM
[4] = target: SRSF protein kinase 2 (Homo sapiens) (UniProt P78362); conditions: Compound concentration 1000.0 nM
[5] = target: Mitogen-activated protein kinase 3 (Homo sapiens) (UniProt P27361); conditions: Compound concentration 1000.0 nM
[6] = target: Tyrosine-protein kinase ZAP-70 (Homo sapiens) (UniProt P43403); conditions: Compound concentration 1000.0 nM
[7] = target: Serine/threonine-protein kinase 4 (Homo sapiens) (UniProt Q13043); conditions: Compound concentration 1000.0 nM
Chain of Serine/threonine-protein kinase 4 (Homo sapiens) (Q13043 whole entry): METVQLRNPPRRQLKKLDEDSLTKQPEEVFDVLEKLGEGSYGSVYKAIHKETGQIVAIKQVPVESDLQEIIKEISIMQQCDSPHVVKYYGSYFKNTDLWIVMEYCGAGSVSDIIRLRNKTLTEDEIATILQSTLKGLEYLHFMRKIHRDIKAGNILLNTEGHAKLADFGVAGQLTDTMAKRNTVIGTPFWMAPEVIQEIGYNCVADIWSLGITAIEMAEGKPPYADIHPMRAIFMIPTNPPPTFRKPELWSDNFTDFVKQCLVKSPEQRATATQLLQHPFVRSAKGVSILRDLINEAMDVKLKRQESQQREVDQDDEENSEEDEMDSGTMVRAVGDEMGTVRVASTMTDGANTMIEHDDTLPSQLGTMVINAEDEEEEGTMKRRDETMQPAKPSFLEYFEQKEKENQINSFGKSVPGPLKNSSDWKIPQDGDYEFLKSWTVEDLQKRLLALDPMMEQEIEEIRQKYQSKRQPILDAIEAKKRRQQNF

[8] = target: Activin receptor type-2B (Homo sapiens) (UniProt Q13705); conditions: Compound concentration 1000.0 nM
[9] = target: Inhibitor of nuclear factor kappa-B kinase subunit epsilon (Homo sapiens) (UniProt Q14164); conditions: Compound concentration 1000.0 nM
[10] = target: Ribosomal protein S6 kinase alpha-3 (Homo sapiens) (UniProt P51812); conditions: Compound concentration 1000.0 nM
Chain of Ribosomal protein S6 kinase alpha-3 (Homo sapiens) (P51812 whole entry): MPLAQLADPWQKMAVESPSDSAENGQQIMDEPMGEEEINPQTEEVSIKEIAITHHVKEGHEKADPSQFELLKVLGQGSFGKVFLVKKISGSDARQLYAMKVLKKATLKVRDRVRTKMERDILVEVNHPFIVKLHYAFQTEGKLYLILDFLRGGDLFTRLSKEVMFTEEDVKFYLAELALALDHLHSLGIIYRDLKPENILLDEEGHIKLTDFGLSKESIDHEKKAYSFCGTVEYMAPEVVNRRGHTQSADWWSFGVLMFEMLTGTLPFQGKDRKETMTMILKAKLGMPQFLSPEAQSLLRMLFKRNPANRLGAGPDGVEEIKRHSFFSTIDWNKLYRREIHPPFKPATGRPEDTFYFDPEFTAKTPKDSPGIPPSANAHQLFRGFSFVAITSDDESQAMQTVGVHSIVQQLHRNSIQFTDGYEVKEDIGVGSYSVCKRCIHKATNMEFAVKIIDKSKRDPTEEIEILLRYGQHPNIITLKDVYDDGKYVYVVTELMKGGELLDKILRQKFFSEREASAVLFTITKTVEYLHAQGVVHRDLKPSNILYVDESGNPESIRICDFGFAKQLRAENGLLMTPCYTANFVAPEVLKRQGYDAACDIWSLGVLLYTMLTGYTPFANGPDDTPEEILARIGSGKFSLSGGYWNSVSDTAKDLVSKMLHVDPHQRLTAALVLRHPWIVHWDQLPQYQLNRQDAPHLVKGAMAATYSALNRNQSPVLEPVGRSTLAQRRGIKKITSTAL

[11] = target: Serine/threonine-protein kinase TAO2 (Homo sapiens) (UniProt Q9UL54); conditions: Compound concentration 1000.0 nM
[12] = target: Mitogen-activated protein kinase kinase kinase 4 (Homo sapiens) (UniProt Q9Y6R4); conditions: Compound concentration 1000.0 nM
[13] = target: Cyclin-dependent kinase 2 (Homo sapiens) (UniProt P24941); conditions: Compound concentration 1000.0 nM
[14] = target: cAMP-dependent protein kinase catalytic subunit PRKX (Homo sapiens) (UniProt P51817); conditions: Compound concentration 1000.0 nM
[15] = target: Serine/threonine-protein kinase 24 (Homo sapiens) (UniProt Q9Y6E0); conditions: Compound concentration 1000.0 nM
[16] = target: Tyrosine-protein kinase ABL1 (Homo sapiens) (UniProt P00519); conditions: Compound concentration 1000.0 nM
[17] = target: Serine/threonine-protein kinase ICK (Homo sapiens) (UniProt Q9UPZ9); conditions: Compound concentration 1000.0 nM
[18] = tested on: Epidermal growth factor receptor (Homo sapiens), P00533 [L861Q]; conditions: Compound concentration 1000.0 nM
[19] = target: MAP kinase-activated protein kinase 5 (Homo sapiens) (UniProt Q8IW41); conditions: Compound concentration 1000.0 nM
[20] = target: Calcium/calmodulin-dependent protein kinase kinase 2 (Homo sapiens) (UniProt Q96RR4); conditions: Compound concentration 1000.0 nM
[21] = target: Tyrosine-protein kinase Yes (Homo sapiens) (UniProt P07947); conditions: Compound concentration 1000.0 nM
[22] = target: Fibroblast growth factor receptor 1 (Homo sapiens) (UniProt P11362); conditions: Compound concentration 1000.0 nM
[23] = target: Calcium/calmodulin-dependent protein kinase type 1G (Homo sapiens) (UniProt Q96NX5); conditions: Compound concentration 1000.0 nM
[24] = target: Serine/threonine-protein kinase 32A (Homo sapiens) (UniProt Q8WU08); conditions: Compound concentration 1000.0 nM
[25] = tested on: Hepatocyte growth factor receptor (Homo sapiens), P08581 [Y1235D]; conditions: Compound concentration 1000.0 nM
[26] = target: Serine/threonine-protein kinase SIK2 (Homo sapiens) (UniProt Q9H0K1); conditions: Compound concentration 1000.0 nM
[27] = target: Ribosomal protein S6 kinase alpha-6 (Homo sapiens) (UniProt Q9UK32); conditions: Compound concentration 1000.0 nM
[28] = tested on: ALK tyrosine kinase receptor (Homo sapiens), Q9UM73 [C1156Y]; conditions: Compound concentration 1000.0 nM
[29] = target: Protein kinase C theta type (Homo sapiens) (UniProt Q04759); conditions: Compound concentration 1000.0 nM
Chain of Protein kinase C theta type (Homo sapiens) (Q04759 whole entry, looked up): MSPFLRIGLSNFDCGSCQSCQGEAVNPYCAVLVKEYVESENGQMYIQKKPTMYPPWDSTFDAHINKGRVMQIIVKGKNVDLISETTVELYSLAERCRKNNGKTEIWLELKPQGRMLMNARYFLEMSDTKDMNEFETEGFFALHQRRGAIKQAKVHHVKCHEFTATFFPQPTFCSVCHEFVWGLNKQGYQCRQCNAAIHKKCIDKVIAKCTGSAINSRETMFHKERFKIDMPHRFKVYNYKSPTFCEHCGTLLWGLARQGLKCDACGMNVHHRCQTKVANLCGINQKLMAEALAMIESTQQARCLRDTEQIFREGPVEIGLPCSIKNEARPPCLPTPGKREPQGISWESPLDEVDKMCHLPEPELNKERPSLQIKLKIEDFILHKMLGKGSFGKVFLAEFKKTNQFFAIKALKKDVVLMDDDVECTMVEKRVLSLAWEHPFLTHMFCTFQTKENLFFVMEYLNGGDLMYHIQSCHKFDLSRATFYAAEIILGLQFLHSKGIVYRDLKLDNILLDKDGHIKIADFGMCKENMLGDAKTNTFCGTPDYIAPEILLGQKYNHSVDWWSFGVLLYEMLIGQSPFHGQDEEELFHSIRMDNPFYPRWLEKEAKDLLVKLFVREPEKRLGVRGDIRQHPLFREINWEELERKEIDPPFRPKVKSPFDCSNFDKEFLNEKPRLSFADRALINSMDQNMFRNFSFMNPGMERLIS

[30] = tested on: Epidermal growth factor receptor (Homo sapiens), P00533 [UNDEFINED MUTATION]; conditions: Compound concentration 1000.0 nM
[31] = target: RAC-alpha serine/threonine-protein kinase (Homo sapiens) (UniProt P31749); conditions: Compound concentration 1000.0 nM
[32] = target: Cyclin-dependent kinase 5 (Homo sapiens) (UniProt Q00535); conditions: Compound concentration 1000.0 nM
[33] = target: cGMP-dependent protein kinase 1 (Homo sapiens) (UniProt Q13976); conditions: Compound concentration 1000.0 nM
Chain of cGMP-dependent protein kinase 1 (Homo sapiens) (Q13976 whole entry): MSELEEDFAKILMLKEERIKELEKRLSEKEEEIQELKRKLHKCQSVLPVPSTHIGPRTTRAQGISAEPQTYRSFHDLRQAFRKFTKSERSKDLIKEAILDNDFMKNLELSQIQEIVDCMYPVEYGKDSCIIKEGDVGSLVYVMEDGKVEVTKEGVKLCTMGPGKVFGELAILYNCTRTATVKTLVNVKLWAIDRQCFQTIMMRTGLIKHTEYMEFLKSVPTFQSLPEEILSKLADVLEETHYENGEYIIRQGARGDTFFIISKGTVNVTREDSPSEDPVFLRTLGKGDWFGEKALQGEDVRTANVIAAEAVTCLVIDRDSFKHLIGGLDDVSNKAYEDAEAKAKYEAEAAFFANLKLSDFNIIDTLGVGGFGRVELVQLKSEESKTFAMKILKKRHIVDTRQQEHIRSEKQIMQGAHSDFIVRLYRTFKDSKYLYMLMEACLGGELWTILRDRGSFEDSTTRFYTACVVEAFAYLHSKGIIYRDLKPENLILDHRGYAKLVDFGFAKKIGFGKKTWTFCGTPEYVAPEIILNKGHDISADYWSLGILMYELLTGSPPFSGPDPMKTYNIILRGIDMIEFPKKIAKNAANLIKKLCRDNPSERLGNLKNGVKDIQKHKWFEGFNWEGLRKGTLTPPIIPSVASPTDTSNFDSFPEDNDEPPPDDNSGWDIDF

[34] = target: Activin receptor type-1-like (Homo sapiens) (UniProt P37023); conditions: Compound concentration 1000.0 nM
[35] = target: Proto-oncogene tyrosine-protein kinase receptor Ret (Homo sapiens) (UniProt P07949); conditions: Compound concentration 1000.0 nM
[36] = target: Casein kinase II subunit alpha' (Homo sapiens) (UniProt P19784); conditions: Compound concentration 1000.0 nM
[37] = target: Cyclin-dependent kinase-like 3 (Homo sapiens) (UniProt Q8IVW4); conditions: Compound concentration 1000.0 nM
Chain of Cyclin-dependent kinase-like 3 (Homo sapiens) (Q8IVW4 whole entry, looked up): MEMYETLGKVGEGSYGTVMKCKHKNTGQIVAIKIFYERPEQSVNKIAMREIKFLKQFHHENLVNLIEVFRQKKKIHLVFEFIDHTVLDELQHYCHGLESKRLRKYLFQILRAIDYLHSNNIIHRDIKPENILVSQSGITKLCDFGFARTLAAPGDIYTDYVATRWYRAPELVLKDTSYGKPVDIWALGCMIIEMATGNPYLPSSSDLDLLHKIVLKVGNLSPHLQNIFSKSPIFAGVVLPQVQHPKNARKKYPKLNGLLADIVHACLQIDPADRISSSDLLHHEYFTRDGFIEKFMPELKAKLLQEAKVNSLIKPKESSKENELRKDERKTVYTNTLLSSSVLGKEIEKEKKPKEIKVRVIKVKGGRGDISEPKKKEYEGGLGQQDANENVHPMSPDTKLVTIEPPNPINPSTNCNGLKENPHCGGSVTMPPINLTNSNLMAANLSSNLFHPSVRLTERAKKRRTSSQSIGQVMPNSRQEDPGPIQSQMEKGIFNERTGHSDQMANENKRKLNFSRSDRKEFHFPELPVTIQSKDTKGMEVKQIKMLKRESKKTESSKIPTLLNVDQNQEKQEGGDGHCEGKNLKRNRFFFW

[38] = target: STE20/SPS1-related proline-alanine-rich protein kinase (Homo sapiens) (UniProt Q9UEW8); conditions: Compound concentration 1000.0 nM
[39] = target: Ephrin type-B receptor 4 (Homo sapiens) (UniProt P54760); conditions: Compound concentration 1000.0 nM
Chain of Ephrin type-B receptor 4 (Homo sapiens) (P54760 whole entry): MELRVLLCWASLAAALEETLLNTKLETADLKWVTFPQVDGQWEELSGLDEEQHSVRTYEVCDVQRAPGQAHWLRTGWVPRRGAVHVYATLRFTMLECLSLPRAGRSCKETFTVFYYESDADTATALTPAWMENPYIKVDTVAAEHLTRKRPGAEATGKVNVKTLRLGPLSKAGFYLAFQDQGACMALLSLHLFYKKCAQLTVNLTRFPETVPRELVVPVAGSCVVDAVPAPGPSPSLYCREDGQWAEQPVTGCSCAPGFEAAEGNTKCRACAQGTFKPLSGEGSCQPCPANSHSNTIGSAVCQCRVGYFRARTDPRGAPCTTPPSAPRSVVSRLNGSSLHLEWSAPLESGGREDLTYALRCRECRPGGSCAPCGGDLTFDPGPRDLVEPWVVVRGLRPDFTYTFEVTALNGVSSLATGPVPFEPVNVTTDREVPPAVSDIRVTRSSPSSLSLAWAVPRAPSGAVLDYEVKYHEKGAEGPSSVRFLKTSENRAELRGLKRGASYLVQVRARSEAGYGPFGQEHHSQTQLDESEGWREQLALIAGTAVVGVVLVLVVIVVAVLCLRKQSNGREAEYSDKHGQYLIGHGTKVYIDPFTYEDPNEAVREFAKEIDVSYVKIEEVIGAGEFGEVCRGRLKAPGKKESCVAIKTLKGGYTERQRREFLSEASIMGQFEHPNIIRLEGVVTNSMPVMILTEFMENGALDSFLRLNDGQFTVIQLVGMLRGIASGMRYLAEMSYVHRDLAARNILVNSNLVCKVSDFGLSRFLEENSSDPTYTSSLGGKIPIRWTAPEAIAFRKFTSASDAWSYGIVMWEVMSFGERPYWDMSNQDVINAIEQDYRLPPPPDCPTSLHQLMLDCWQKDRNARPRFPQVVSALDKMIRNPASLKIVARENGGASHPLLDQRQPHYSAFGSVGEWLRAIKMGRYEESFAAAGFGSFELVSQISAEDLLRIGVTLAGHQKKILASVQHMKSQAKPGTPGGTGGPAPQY

[40] = target: Serine/threonine-protein kinase MRCK alpha (Homo sapiens) (UniProt Q5VT25); conditions: Compound concentration 1000.0 nM
[41] = target: Serine/threonine-protein kinase Sgk2 (Homo sapiens) (UniProt Q9HBY8); conditions: Compound concentration 1000.0 nM
Chain of Serine/threonine-protein kinase Sgk2 (Homo sapiens) (Q9HBY8 whole entry): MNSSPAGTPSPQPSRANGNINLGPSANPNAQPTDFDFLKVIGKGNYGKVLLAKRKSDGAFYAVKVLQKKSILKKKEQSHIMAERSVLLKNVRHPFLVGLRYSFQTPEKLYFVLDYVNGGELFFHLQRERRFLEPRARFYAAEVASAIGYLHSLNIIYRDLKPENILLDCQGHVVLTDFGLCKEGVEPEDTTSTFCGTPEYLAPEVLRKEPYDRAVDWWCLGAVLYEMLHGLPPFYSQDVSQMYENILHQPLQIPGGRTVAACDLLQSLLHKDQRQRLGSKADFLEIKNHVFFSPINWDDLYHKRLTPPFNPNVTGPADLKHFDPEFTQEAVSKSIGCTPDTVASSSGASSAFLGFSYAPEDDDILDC

[42] = target: Glycogen synthase kinase-3 beta (Homo sapiens) (UniProt P49841); conditions: Compound concentration 1000.0 nM
Chain of Glycogen synthase kinase-3 beta (Homo sapiens) (P49841 whole entry, looked up): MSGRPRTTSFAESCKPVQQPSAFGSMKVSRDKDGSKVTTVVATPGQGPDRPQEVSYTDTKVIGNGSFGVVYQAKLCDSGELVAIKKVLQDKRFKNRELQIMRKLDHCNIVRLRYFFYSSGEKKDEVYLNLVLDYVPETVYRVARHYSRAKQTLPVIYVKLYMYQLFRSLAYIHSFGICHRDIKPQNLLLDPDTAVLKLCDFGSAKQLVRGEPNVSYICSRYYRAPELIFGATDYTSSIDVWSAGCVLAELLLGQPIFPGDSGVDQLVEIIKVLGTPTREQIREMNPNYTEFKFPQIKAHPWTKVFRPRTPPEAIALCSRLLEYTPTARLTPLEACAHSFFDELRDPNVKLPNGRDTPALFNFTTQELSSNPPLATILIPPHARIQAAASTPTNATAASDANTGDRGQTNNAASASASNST

[43] = target: Mitogen-activated protein kinase kinase kinase 12 (Homo sapiens) (UniProt Q12852); conditions: Compound concentration 1000.0 nM
[44] = target: Sigma non-opioid intracellular receptor 1 (Homo sapiens) (UniProt Q99720); conditions: Compound concentration 10.0 uM
[45] = target: Casein kinase I isoform alpha-like (Homo sapiens) (UniProt Q8N752); conditions: Compound concentration 1000.0 nM

**Q.** How did the residual activity [1] turn out when `O=C(NCc1ncc(C(F)(F)F)cc1Cl)c1ccc2c(c1)C1(CCS(=O)(=O)CC1)[C@H](C1CC1)N2S(=O)(=O)c1ccc(F)cc1` [BAY-784] was run?
**A.** 82%

**Q.** And the inhibition [2]?
**A.** 19.1%

**Q.** What about the residual activity [3] of the same compound?
**A.** 91%

**Q.** And the residual activity [4]?
**A.** 91%

**Q.** And the residual activity [5]?
**A.** 100%

**Q.** And the residual activity [6]?
**A.** 84%

**Q.** And the residual activity [7]?
**A.** 87%

**Q.** What about the residual activity [8] of the same compound?
**A.** 90%

**Q.** What about the residual activity [9] of the same compound?
**A.** 77%

**Q.** And the residual activity [10]?
**A.** 100%

**Q.** And the residual activity [11]?
**A.** 81%

**Q.** What about the residual activity [12] of the same compound?
**A.** 100%

**Q.** What about the residual activity [13] of the same compound?
**A.** 85%

**Q.** And the residual activity [14]?
**A.** 88%

**Q.** And the residual activity [15]?
**A.** 100%

**Q.** And the residual activity [16]?
**A.** 92%

**Q.** And the residual activity [17]?
**A.** 100%

**Q.** And the residual activity [18]?
**A.** 84%

**Q.** What about the residual activity [19] of the same compound?
**A.** 100%

**Q.** What about the residual activity [20] of the same compound?
**A.** 100%

**Q.** What about the residual activity [21] of the same compound?
**A.** 90%

**Q.** And the residual activity [22]?
**A.** 49%

**Q.** What about the residual activity [23] of the same compound?
**A.** 98%

**Q.** And the residual activity [24]?
**A.** 100%

**Q.** And the residual activity [25]?
**A.** 100%

**Q.** And the residual activity [26]?
**A.** 96%

**Q.** And the residual activity [27]?
**A.** 78%

**Q.** What about the residual activity [28] of the same compound?
**A.** 82%

**Q.** What about the residual activity [29] of the same compound?
**A.** 100%

**Q.** And the residual activity [30]?
**A.** 97%

**Q.** And the residual activity [31]?
**A.** 96%

**Q.** What about the residual activity [32] of the same compound?
**A.** 0%

**Q.** And the residual activity [33]?
**A.** 100%

**Q.** And the residual activity [34]?
**A.** 98%

**Q.** What about the residual activity [35] of the same compound?
**A.** 98%

**Q.** And the residual activity [36]?
**A.** 100%

**Q.** What about the residual activity [37] of the same compound?
**A.** 100%

**Q.** What about the residual activity [38] of the same compound?
**A.** 84%

**Q.** What about the residual activity [39] of the same compound?
**A.** 100%

**Q.** What about the residual activity [40] of the same compound?
**A.** 100%

**Q.** And the residual activity [41]?
**A.** 83%

**Q.** What about the residual activity [42] of the same compound?
**A.** 87%

**Q.** And the residual activity [43]?
**A.** 82%

**Q.** And the inhibition [44]?
**A.** 17.8%

**Q.** What about the residual activity [45] of the same compound?
**A.** 95%

**Q.** What does the source list for `O=C(NCc1ncc(C(F)(F)F)cc1Cl)c1ccc2c(c1)C1(CCS(=O)(=O)CC1)[C@@H](C1CC1)N2S(=O)(=O)c1ccc(F)cc1` [BAY-786]?
**A.** residual activity [1]: 77%; inhibition [2]: -0.49%; residual activity [3]: 96%; residual activity [4]: 100%; residual activity [5]: 83%; residual activity [6]: 72%; residual activity [7]: 86%; residual activity [8]: 100%; residual activity [9]: 82%; residual activity [10]: 82%; residual activity [11]: 64%; residual activity [12]: 84%; residual activity [13]: 100%; residual activity [14]: 100%; residual activity [15]: 100%; residual activity [16]: 89%; residual activity [17]: 97%; residual activity [18]: 76%; residual activity [19]: 100%; residual activity [20]: 83%; residual activity [21]: 93%; residual activity [22]: 100%; residual activity [23]: 100%; residual activity [24]: 99%; residual activity [25]: 100%; residual activity [26]: 100%; residual activity [27]: 84%; residual activity [28]: 100%; residual activity [29]: 95%; residual activity [30]: 69%; residual activity [31]: 94%; residual activity [32]: 89%; residual activity [33]: 100%; residual activity [34]: 72%; residual activity [35]: 100%; residual activity [36]: 72%; residual activity [37]: 100%; residual activity [38]: 77%; residual activity [39]: 94%; residual activity [40]: 100%; residual activity [41]: 77%; residual activity [42]: 90%; residual activity [43]: 87%; inhibition [44]: 37.6%; residual activity [45]: 100%
